{"source": "patent US9603877B2", "about": "“Isolated nucleotide molecule and method of sensing and killing of pathogenic microorganism” (priority 2011, dated 2017)", "key": {"[1]": {"target": "T1, Pseudomonas aeruginosa LasR, SEQ ID NO: 1 (UniProt: PSPA7_3898), in sensing device pTetR-LasR-pLuxR-GFP (Pseudomonas aeruginosa, UniProt P25084)", "T1 construct": "expressed in transfected cells; host or cells: E. coli TOP10 (plasmid pTetR-LasR-pLuxR-GFP in pSB1A2)", "T1 sequence (P25084 whole entry M144I)": "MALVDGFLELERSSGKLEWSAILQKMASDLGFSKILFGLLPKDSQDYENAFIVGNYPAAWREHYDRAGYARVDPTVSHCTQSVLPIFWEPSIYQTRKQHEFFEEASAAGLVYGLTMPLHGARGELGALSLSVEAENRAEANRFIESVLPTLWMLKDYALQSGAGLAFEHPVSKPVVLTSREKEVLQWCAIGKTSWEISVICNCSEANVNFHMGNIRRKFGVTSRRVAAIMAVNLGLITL", "test": "Characterization/transfer function of the LasR sensing device (pTetR-LasR-pLuxR-GFP) with 3OC12HSL, GFP reporter in E. coli TOP10", "format": "cell-based, P. aeruginosa", "procedure": "Single colonies of pTetR-LasR-pLuxR-GFP (Top10) were each inoculated into 5 ml of pre-warmed supplemented M9 ampicillin for overnight culture in a shaking incubator at 37° C. After overnight growth, the cultures were diluted to OD600 of 0.002 and allowed to incubate further to OD600 of 0.5 or 5.0E7 cfu/ml under the same condition. […] The plate was incubated at 37° C. with rapid shaking in a microplate reader (Biotek) and assayed for green fluorescence. Time-series fluorescence and OD600 data were obtained at intervals of 10 mins for a total run time of 3 hrs. The measurement was zeroed with supplemented M9 to remove background fluorescence and OD600. A relative GFP production rate was derived as a ratio of background subtracted green fluorescence to OD600 value.\nThe four parameters (A, B, C, n) were estimated to obtain the best fit curve by performing a non-linear curve fitting using the experimental results. This curve fitting was performed using MATLAB Curve Fitting Toolbox (The Mathworks, Natwick, Mass., USA)."}, "[2]": {"tested_on": "E. coli carrying pTetR-LasR-pLuxR-E7", "test": "Characterization of lysis device with 3OC12HSL (OD600 of E. coli carrying pTetR-LasR-pLuxR-E7)", "format": "cell-based", "procedure": "Characterization of Lysis Device with 3OC12HSL\nOvernight cultures of pTetR-LasR-pLuxR-E7 (Top10) were diluted in supplemented M9 and harvested at an OD600 of 0.5. […] The plate was incubated at 37° C. with rapid shaking in a microplate reader (Biotek) and assayed for cell turbidity. Time-series absorbance at OD600 was obtained at intervals of 10 mins for a total run time of 6 hrs. The result was zeroed with supplemented M9 to remove background absorbance.\nThe system according to various embodiments was designed to release pyocin S5 through lysis upon detection of P. aeruginosa. To determine the lysis activity of the system, the behavior of the E7 lysis protein under the transcriptional control of the sensing device before integrating both the pyocin S5 and E7 genes into the system was characterized. […] To further confirm that the lysis activity may be sustained in the final system including pyocin S5, the morphology of E. coli containing the final system (i.e., pTetR-LasR-pLuxR-S5-pLuxR-E7; FIG. 1B) was monitored using FESEM."}}, "data": [{"smiles": "CCCCCCCCCC(=O)CC(=O)N[C@H]1CCOC1=O", "note": "[3OC12HSL, N-3-oxododecanoyl homoserine lactone]", "values": [{"measurement": "input concentration at which the sensing device saturated", "setting": "[1]; Hill model, >3.3E-7M but <1.0E-6M", "value": "> 330", "unit": "nM"}, {"measurement": "maximum output (GFP production rate) at saturation", "setting": "[1]; Hill model, input concentration >3.3E-7M but <1.0E-6M", "value": 1.96, "unit": "RFU per OD per minute"}, {"measurement": "concentration at which GFP production rate peaked", "setting": "[1]; sharp increase beyond 1.0E-7M, sharp decline after peak", "value": 1000, "unit": "nM"}, {"measurement": "growth/lysis of E. coli (OD600) at 1.0E-6 and 1.0E-4M 3OC12HSL", "setting": "[2]; 1.0E-6 and 1.0E-4M 3OC12HSL", "value": "significant reduction in optical density"}, {"measurement": "growth/lysis of E. coli (OD600) at 1.0E-8M 3OC12HSL", "setting": "[2]; 1.0E-8M 3OC12HSL", "value": "no noticeable transition into a lysis state"}, {"measurement": "minimal effective concentration", "setting": "[2]; Escherichia coli, 2 h, read-out: concentration causing observable cell lysis", "value": "≥ 1", "unit": "µM"}]}]}
